# Legend:
# AT4 receptors = conditions: cited from earlier work
# [1] = system: TAA-induced hepatic fibrosis rats; experiment: Assessment of liver function (plasma ALT and AST) in TAA-induced hepatic fibrosis rats; type: in vivo, rat; conditions: mean ± SEM, n=8
# Method: The protocol for this study was approved by the King Abdulaziz University Research Ethics Committee and adhered to the international guidelines for the Care and Use of Laboratory Animals. Adult Sprague-Dawley male rats weighing 200-250 g were obtained from King Fahd Research Center and housed in cages at 20-22° C. room temperature in a 12 h light-dark cycle. After one week of acclimatization, rats were used in the experiment. Food and water were available ad libitum. Rats were given freshly prepared TAA (0.9% w/v in saline solution, 200 mg/kg, ip) twice weekly for eight weeks. A normal control (NC) group of rats (n=8) received injections of the vehicle twice weekly for eight weeks. The TAA-treated rats were randomly assigned to groups (n=8), including a test group for each dosage of a free drug (not encapsulated in ZMS), each dosage of zeinmersomes encapsulating the drug, and a positive control group (PC) having hepatic fibrosis but receiving a vehicle-only treatment instead of a drug treatment. Five groups of rats (n=8) were given freshly prepared TAA (0.9% w/v in saline solution, 200 mg/kg, ip) twice weekly for eight weeks and a normal control (NC) group received vehicle injections, as described in Example 4. The five TAA groups included a positive control group (PC, untreated) and four groups treated with low and high doses (2 and 4 mg/kg/day) of OM as raw drug (OL & OH, respectively) and the same low and high doses (2 and 4 mg/kg/day) of OM formulated as zeinmersomes (OLZMS & OHZMS, respectively). The OM standard drug was suspended in distilled water containing 0.25% w/v carboxymethyl cellulose. The doses were given by oral gavage once daily for two months. […] At the end of treatment duration, blood samples were withdrawn from the retro-orbital plexus of the rats under light ether anesthesia. Plasma was separated and kept at −80° C. until analysis. Then, the rats were sacrificed by cervical dislocation under ether anesthesia. Liver and duodenum were isolated and parts of each were kept in 10% formalin-saline for histopathological examination. Other portions of liver tissue were homogenized. The plasma levels of ALT and AST and the homogenate levels of IL-6, reduced glutathione (GSH), TNF-α, malondialdehyde (MDA), and protein content were measured using ELISA kits (MyBioSource, Inc. CA, USA). In addition, the concentrations of olmesartan in plasma and liver homogenate were measured by HPLC/MS. Data are expressed as mean±SEM Comparisons between different groups were carried out using one-way analysis of variance (ANOVA) followed by Bonferroni test for multiple comparisons. […] The levels of ALT and AST were measured by using ELISA commercially available kits according to the manufacturer's protocol.
# [2] = system: TAA-induced hepatic fibrosis rats; experiment: Histopathology of duodenal sections and detection of sprue-like enteropathy in TAA-induced hepatic fibrosis rats; type: in vivo, rat; conditions: two months
# Method: Rats were given freshly prepared TAA (0.9% w/v in saline solution, 200 mg/kg, ip) twice weekly for eight weeks. A normal control (NC) group of rats (n=8) received injections of the vehicle twice weekly for eight weeks. The TAA-treated rats were randomly assigned to groups (n=8), including a test group for each dosage of a free drug (not encapsulated in ZMS), each dosage of zeinmersomes encapsulating the drug, and a positive control group (PC) having hepatic fibrosis but receiving a vehicle-only treatment instead of a drug treatment. Five groups of rats (n=8) were given freshly prepared TAA (0.9% w/v in saline solution, 200 mg/kg, ip) twice weekly for eight weeks and a normal control (NC) group received vehicle injections, as described in Example 4. The five TAA groups included a positive control group (PC, untreated) and four groups treated with low and high doses (2 and 4 mg/kg/day) of OM as raw drug (OL & OH, respectively) and the same low and high doses (2 and 4 mg/kg/day) of OM formulated as zeinmersomes (OLZMS & OHZMS, respectively). […] The plasma levels of ALT and AST and the homogenate levels of IL-6, reduced glutathione (GSH), TNF-α, malondialdehyde (MDA), and protein content were measured using ELISA kits (MyBioSource, Inc. CA, USA). In addition, the concentrations of olmesartan in plasma and liver homogenate were measured by HPLC/MS. […]
# AT2 receptors = target: T1, AT2 receptors (Homo sapiens, UniProt P50052); conditions: cited from earlier work
# T1 sequence (P50052 1-363): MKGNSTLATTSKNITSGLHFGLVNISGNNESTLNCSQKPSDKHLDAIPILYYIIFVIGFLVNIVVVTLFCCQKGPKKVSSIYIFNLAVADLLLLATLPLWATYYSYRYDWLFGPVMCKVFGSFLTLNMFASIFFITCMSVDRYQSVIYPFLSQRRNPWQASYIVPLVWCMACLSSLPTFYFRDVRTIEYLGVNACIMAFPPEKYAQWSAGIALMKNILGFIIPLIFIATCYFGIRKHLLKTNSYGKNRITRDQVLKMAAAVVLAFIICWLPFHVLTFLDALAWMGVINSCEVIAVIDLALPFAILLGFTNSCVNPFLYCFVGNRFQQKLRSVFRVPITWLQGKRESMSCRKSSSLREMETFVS
# fructose-fed rats = conditions: 0.1 mg/kg/day; cited from earlier work
# [3] = high dose 4 mg/kg/day oral gavage once daily for two months
# [4] = low dose 2 mg/kg/day oral gavage once daily for two months
structure (smiles),measurement,setting,value
"CCCc1nc(C(C)(C)O)c(C(=O)OCc2oc(=O)oc2C)n1Cc1ccc(-c2ccccc2-c2nnn[nH]2)cc1 [OM, (5-methyl-2-oxo-1,3-dioxol-4-yl)methyl 5-(2-hydroxypropan-2-yl)-2-propyl-3-[[4-[2-(2H-tetrazol-5-yl)phenyl]phenyl]methyl]imidazole-4-carboxylate]",antagonistic effects on the AT4 receptors,AT4 receptors,almost no antagonistic effects
same,plasma ALT,[1]; [3],81.41 U/L
same,plasma AST,[1]; [3],169.00 U/L
same,plasma ALT,[1]; [4],114.88 U/L
same,plasma AST,[1]; [4],198.32 U/L
same,duodenal histopathology (TAA-induced duodenal changes),[2]; high dose 4 mg/kg/day oral,mild improvement
same,duodenal histopathology (TAA-induced duodenal changes),[2]; low dose 2 mg/kg/day oral,swollen distorted villi with damaged desquamated surface epithelium
same,antagonistic effects on the AT2 receptors,AT2 receptors,almost no antagonistic effects
same,TNF-α level,fructose-fed rats,reduced
same,cAMP level in the soleus muscle,fructose-fed rats,increased
